{
  "source": "the NIST ThermoML archive (doi:10.1021/je8006937)",
  "settings": "Liquid, Pendant drop shape",
  "note": "Values joined by “and” are separate entries in the source; they are usually repeats but may differ in a detail not shown here. Equal values may be shown once. Numbers after ± are expanded uncertainties.",
  "data": [
    {"compound": "CCOCCOCCOS(=O)(=O)[O-].CCn1cc[n+](C)c1", "note": "[1-ethyl-3-methylimidazolium 2-(2-ethoxyethoxy)ethylsulfate] + O=C=O", "values": [
      {"measurement": "interfacial tension", "setting": "280.25 K, 100 kPa", "result": "36.7 ± 0.2 mN/m and 37.3 ± 0.2 mN/m"},
      {"measurement": "interfacial tension", "setting": "280.26 K, 1170 kPa", "result": "30.3 ± 0.2", "unit": "mN/m"},
      {"measurement": "interfacial tension", "setting": "280.26 K, 2340 kPa", "result": "22.6 ± 0.1", "unit": "mN/m"},
      {"measurement": "interfacial tension", "setting": "280.26 K, 3340 kPa", "result": "15.5 ± 0.6", "unit": "mN/m"},
      {"measurement": "interfacial tension", "setting": "280.28 K, 3950 kPa", "result": "9.8 ± 0.7", "unit": "mN/m"},
      {"measurement": "interfacial tension", "setting": "280.4 K, 4240 kPa", "result": "6.3 ± 0.4", "unit": "mN/m"},
      {"measurement": "interfacial tension", "setting": "280.46 K, 5230 kPa", "result": "6.6 ± 0.5", "unit": "mN/m"},
      {"measurement": "interfacial tension", "setting": "280.46 K, 7030 kPa", "result": "6 ± 0.1", "unit": "mN/m"},
      {"measurement": "interfacial tension", "setting": "280.49 K, 8960 kPa", "result": "5.8 ± 0.1", "unit": "mN/m"},
      {"measurement": "interfacial tension", "setting": "280.51 K, 10860 kPa", "result": "5.4 ± 0.1", "unit": "mN/m"},
      {"measurement": "interfacial tension", "setting": "280.53 K, 12970 kPa", "result": "5.4 ± 0.1", "unit": "mN/m"},
      {"measurement": "interfacial tension", "setting": "280.54 K, 15110 kPa", "result": "5.1 ± 0.1", "unit": "mN/m"},
      {"measurement": "interfacial tension", "setting": "280.55 K, 17290 kPa", "result": "5.1 ± 0.1", "unit": "mN/m"},
      {"measurement": "interfacial tension", "setting": "280.58 K, 20670 kPa", "result": "4.7 ± 0.1", "unit": "mN/m"},
      {"measurement": "interfacial tension", "setting": "299.4 K, 100 kPa", "result": "36.2 ± 0.2", "unit": "mN/m"},
      {"measurement": "interfacial tension", "setting": "299.43 K, 4810 kPa", "result": "14.9 ± 0.3", "unit": "mN/m"},
      {"measurement": "interfacial tension", "setting": "299.43 K, 14740 kPa", "result": "6.6 ± 0.1", "unit": "mN/m"},
      {"measurement": "interfacial tension", "setting": "299.45 K, 16390 kPa", "result": "6.4 ± 0.1", "unit": "mN/m"},
      {"measurement": "interfacial tension", "setting": "299.46 K, 17880 kPa", "result": "6.2 ± 0.1", "unit": "mN/m"},
      {"measurement": "interfacial tension", "setting": "299.47 K, 6680 kPa", "result": "8.6 ± 0.2", "unit": "mN/m"},
      {"measurement": "interfacial tension", "setting": "299.48 K, 20360 kPa", "result": "6 ± 0.1", "unit": "mN/m"},
      {"measurement": "interfacial tension", "setting": "299.53 K, 10230 kPa", "result": "7.6 ± 0.1", "unit": "mN/m"},
      {"measurement": "interfacial tension", "setting": "299.54 K, 12350 kPa", "result": "6.8 ± 0.1", "unit": "mN/m"},
      {"measurement": "interfacial tension", "setting": "299.55 K, 8330 kPa", "result": "7.9 ± 0.1", "unit": "mN/m"},
      {"measurement": "interfacial tension", "setting": "319.74 K, 2000 kPa", "result": "28.5 ± 0.2", "unit": "mN/m"},
      {"measurement": "interfacial tension", "setting": "319.74 K, 3090 kPa", "result": "25.1 ± 0.3", "unit": "mN/m"},
      {"measurement": "interfacial tension", "setting": "319.74 K, 4040 kPa", "result": "22.2 ± 0.3", "unit": "mN/m"},
      {"measurement": "interfacial tension", "setting": "319.75 K, 100 kPa", "result": "35.5 ± 0.2 mN/m and 35.4 ± 0.2 mN/m"},
      {"measurement": "interfacial tension", "setting": "319.75 K, 1010 kPa", "result": "31.5 ± 0.2", "unit": "mN/m"},
      {"measurement": "interfacial tension", "setting": "319.75 K, 5010 kPa", "result": "19.4 ± 0.3", "unit": "mN/m"},
      {"measurement": "interfacial tension", "setting": "319.76 K, 5950 kPa", "result": "16.5 ± 0.3", "unit": "mN/m"},
      {"measurement": "interfacial tension", "setting": "319.76 K, 8950 kPa", "result": "7.6 ± 0.2", "unit": "mN/m"},
      {"measurement": "interfacial tension", "setting": "319.78 K, 7260 kPa", "result": "13.1 ± 0.3", "unit": "mN/m"},
      {"measurement": "interfacial tension", "setting": "319.87 K, 10740 kPa", "result": "9.8 ± 0.1", "unit": "mN/m"},
      {"measurement": "interfacial tension", "setting": "319.87 K, 12430 kPa", "result": "8.9 ± 0.1", "unit": "mN/m"},
      {"measurement": "interfacial tension", "setting": "319.95 K, 14470 kPa", "result": "8.4 ± 0.1", "unit": "mN/m"},
      {"measurement": "interfacial tension", "setting": "319.98 K, 17410 kPa", "result": "7.8 ± 0.1", "unit": "mN/m"},
      {"measurement": "interfacial tension", "setting": "320.03 K, 20790 kPa", "result": "7.7 ± 0.1", "unit": "mN/m"}
    ]}
  ]
}
